In ChEMBL document CHEMBL1909046, “DrugMatrix in vitro pharmacology data”:

Experiments:
[1] = biological target: T1, Receptor-type tyrosine-protein phosphatase C (Homo sapiens, UniProt P08575); set-up: species or system Escherichia coli;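 further: inhibition of CD45 enzyme activity measured using DiFMUP as substrate; in other assays of this panel Not Active means under 50% inhibition at 10 µM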
T1 sequence (P08575 whole entry): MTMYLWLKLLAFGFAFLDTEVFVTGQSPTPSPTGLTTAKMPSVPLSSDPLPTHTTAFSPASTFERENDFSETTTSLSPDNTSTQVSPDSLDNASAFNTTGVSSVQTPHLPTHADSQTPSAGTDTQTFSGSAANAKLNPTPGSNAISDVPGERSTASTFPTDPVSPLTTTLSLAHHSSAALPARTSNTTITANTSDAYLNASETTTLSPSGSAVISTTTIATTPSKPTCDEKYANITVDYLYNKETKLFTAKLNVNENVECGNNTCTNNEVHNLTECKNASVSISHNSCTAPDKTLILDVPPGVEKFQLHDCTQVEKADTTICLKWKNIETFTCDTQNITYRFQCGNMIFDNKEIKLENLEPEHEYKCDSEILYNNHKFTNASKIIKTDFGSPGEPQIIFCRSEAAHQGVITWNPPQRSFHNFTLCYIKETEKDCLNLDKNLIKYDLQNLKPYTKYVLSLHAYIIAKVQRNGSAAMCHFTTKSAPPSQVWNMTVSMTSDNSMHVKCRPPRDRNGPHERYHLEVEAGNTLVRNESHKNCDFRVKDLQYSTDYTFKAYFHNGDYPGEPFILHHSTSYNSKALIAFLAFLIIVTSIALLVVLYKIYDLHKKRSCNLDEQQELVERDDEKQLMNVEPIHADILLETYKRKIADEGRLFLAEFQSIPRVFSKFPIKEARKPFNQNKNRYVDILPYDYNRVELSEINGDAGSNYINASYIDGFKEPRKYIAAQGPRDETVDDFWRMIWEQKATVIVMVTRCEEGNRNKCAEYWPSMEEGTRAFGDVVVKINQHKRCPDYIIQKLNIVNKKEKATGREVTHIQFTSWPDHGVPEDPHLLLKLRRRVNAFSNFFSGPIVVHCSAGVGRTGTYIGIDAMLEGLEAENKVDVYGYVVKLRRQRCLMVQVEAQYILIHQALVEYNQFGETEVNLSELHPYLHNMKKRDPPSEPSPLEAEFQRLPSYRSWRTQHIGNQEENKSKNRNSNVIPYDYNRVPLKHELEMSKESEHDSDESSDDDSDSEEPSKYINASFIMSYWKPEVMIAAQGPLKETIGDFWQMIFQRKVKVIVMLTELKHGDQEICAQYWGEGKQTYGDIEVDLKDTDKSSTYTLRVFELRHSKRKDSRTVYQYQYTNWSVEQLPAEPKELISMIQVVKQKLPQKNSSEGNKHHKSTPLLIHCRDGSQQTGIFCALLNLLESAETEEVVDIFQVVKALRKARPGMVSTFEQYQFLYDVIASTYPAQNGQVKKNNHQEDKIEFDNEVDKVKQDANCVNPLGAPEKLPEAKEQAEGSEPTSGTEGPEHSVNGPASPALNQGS

[2] = biological target: D(1A) dopamine receptor (Homo sapiens, UniProt P21728); test: DRUGMATRIX: Dopamine D1 radioligand binding (ligand: [3H] SCH-23390); type: cell membranes, CHO, Membrane; conditions: cho; Not Active = under 50% inhibition at 10 µM
[3] = biological target: T2, Muscarinic acetylcholine receptor M2 (Homo sapiens, UniProt P08172); type: cell membranes, CHO-K1, Membrane; further: in other assays of this panel Not Active means under 50% inhibition at 10 µM
T2 sequence (P08172 whole entry): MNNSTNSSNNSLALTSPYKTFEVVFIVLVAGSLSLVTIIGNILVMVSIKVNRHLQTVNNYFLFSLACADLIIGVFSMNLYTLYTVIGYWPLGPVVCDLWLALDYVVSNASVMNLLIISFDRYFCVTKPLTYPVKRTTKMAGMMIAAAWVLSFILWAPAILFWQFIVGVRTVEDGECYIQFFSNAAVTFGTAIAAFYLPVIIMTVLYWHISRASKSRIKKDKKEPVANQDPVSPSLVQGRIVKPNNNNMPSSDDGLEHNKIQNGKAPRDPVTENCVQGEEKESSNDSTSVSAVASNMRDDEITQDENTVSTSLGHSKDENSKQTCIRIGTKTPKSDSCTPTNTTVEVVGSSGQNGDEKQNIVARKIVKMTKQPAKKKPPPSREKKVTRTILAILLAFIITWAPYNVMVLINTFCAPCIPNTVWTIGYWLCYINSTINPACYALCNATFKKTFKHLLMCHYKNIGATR

[4] = biological target: T3, D(4) dopamine receptor (Homo sapiens, UniProt P21917); test: DRUGMATRIX: Dopamine D4.2 radioligand binding (ligand: [3H] Spiperone); type: cell membranes, CHO-K1, Membrane; conditions: cho-k1; Not Active = under 50% inhibition at 10 µM
T3 sequence (P21917 whole entry): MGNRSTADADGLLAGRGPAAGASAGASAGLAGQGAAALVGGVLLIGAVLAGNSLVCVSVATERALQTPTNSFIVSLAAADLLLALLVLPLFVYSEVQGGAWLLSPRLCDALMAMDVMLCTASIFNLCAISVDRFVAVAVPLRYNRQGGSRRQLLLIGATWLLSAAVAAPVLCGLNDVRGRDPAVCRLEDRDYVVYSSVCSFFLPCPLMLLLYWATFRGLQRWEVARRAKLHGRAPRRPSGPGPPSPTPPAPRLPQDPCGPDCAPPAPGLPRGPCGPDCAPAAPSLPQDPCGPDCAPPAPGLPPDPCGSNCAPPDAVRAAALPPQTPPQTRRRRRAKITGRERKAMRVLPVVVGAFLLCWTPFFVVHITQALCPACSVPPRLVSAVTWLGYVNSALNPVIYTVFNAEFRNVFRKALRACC

[5] = biological target: T4, B2 bradykinin receptor (Homo sapiens, UniProt P30411); type: cell membranes, Membrane; conditions: chem-1; further: in other assays of this panel Not Active means under 50% inhibition at 10 µM
T4 sequence (P30411 whole entry): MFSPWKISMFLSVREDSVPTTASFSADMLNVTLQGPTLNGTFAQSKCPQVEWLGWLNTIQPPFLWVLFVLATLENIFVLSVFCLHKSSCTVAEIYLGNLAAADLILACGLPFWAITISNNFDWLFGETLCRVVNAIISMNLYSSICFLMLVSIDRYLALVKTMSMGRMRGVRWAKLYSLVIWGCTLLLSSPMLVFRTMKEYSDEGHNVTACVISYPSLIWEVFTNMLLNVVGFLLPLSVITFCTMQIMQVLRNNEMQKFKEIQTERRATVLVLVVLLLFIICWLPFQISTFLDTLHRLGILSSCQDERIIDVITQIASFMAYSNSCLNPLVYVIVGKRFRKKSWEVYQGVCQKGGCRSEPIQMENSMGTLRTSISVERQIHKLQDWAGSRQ

[6] = biological target: Receptor tyrosine-protein kinase erbB-2 (Homo sapiens, UniProt P04626); type: cell-based; conditions: insect cells;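 further: inhibition of HER2 kinase enzyme activity, measured with Poly(Glu:Tyr) as the phosphorylation substrate; in other assays of this panel Not Active means under 50% inhibition at 10 µM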
[7] = DRUGMATRIX: Sigma2 radioligand binding (ligand: [3H] Ifenprodil); type: cell membranes, Rattus norvegicus, Wistar, Brain, Membrane; conditions: Not Active = under 50% inhibition at 10 µM

D(1A) dopamine receptor, sequence (P21728 whole entry): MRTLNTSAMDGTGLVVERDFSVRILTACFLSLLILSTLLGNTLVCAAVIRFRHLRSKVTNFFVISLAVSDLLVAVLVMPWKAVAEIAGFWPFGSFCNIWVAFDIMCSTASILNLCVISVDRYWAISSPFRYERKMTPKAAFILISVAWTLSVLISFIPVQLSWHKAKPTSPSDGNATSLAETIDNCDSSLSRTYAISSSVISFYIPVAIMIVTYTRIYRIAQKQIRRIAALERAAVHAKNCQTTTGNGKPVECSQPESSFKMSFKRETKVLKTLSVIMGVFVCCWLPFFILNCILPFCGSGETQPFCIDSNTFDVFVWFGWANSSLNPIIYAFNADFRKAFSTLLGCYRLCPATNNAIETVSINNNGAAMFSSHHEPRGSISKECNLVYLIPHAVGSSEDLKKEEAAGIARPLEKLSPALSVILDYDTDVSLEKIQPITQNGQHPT

Compound	IC50 [1]	IC50 [2]	IC50 ([3]; cho-k1)	IC50 [4]	IC50 [5]	IC50 [6]	IC50 [7]	Ki [7]	IC50 ([3]; read-out: IC50)	Ki ([3]; read-out: Ki)	IC50 ([7]; read-out: IC50)	Ki ([7]; read-out: Ki)	Ki [1]	Ki [2]	Ki ([3]; cho-k1)	Ki [4]	Ki [5]	Ki [6]
O=C1c2ccccc2C(=O)C1c1ccccc1 [PHENINDIONE]	Not Active	Not Active	Not Active	Not Active	Not Active	Not Active	Not Active	Not Active	–	–	–	–	–	–	–	–	–	–
Clc1cc(Cl)c(OCC#CI)cc1Cl [HALOPROGIN]	Not Active	–	Not Active	Not Active	Not Active	Not Active	Not Active	Not Active	–	–	–	–	–	–	–	–	–	–
C[C@H]1C[C@H]2[C@@H]3CCC4=CC(=O)C=C[C@]4(C)[C@@]3(F)[C@@H](O)C[C@]2(C)[C@@]1(O)C(=O)CO [BETAMETHASONE]	Not Active	Not Active	Not Active	Not Active	Not Active	Not Active	Not Active	Not Active	–	–	–	–	–	–	–	–	–	–
COc1ccc(Cl)cc1C(=O)NCCc1ccc(S(=O)(=O)NC(=O)NC2CCCCC2)cc1 [GLYBURIDE]	Not Active	Not Active	Not Active	Not Active	Not Active	Not Active	Not Active	Not Active	–	–	–	–	–	–	–	–	–	–
CC1(COc2ccc(CC3SC(=O)NC3=O)cc2)CCCCC1 (stereo unspecified) [CIGLITAZONE]	Not Active	–	–	Not Active	Not Active	Not Active	Not Active	Not Active	21.1 µM	7.5 µM	–	–	–	–	–	–	–	–
Cc1ccnc2c1NC(=O)c1cccnc1N2C1CC1 [NEVIRAPINE]	Not Active	Not Active	Not Active	Not Active	Not Active	Not Active	Not Active	Not Active	–	–	–	–	–	–	–	–	–	–
CNC[C@H](O)c1ccc(O)c(O)c1 [EPINEPHRINE]	Not Active	Not Active	Not Active	Not Active	Not Active	Not Active	Not Active	Not Active	–	–	–	–	–	–	–	–	–	–
CN(Cc1cc(Br)cc(Br)c1N)C1CCCCC1 [BROMHEXINE]	Not Active	Not Active	Not Active	Not Active	Not Active	Not Active	–	–	–	–	0.059 µM	0.036 µM	–	–	–	–	–	–
COPPER(II) OXIDE	Not Active	Not Active	Not Active	Not Active	Not Active	Not Active	Not Active	Not Active	–	–	–	–	Not Active	Not Active	Not Active	Not Active	Not Active	Not Active
CCN1C[C@]2(COC)[C@H](O)C[C@H](OC)[C@@]34[C@@H]5C[C@@]6(O)[C@H](OC(=O)c7ccccc7)[C@@H]5[C@@](OC(C)=O)([C@@H]([C@H](OC)[C@H]23)[C@@H]14)[C@@H](O)[C@@H]6OC [ACONITINE]	Not Active	Not Active	Not Active	Not Active	Not Active	Not Active	Not Active	Not Active	–	–	–	–	–	–	–	–	–	–
COc1ccc(C[C@H](N)C(=O)N[C@H]2[C@@H](O)[C@H](n3cnc4c(N(C)C)ncnc43)O[C@@H]2CO)cc1 [PUROMYCIN]	Not Active	Not Active	Not Active	Not Active	Not Active	Not Active	Not Active	Not Active	–	–	–	–	–	–	–	–	–	–
OC[C@H]1OC2C3[C@@H](CO)OC(O[C@H]4[C@H](O)[C@@H](O)[C@@H](O[C@H]5[C@H](O)[C@@H](O)[C@@H](O[C@H]6[C@H](O)[C@@H](O)[C@@H](O[C@H]7[C@H](O)[C@@H](O)[C@@H](O[C@H]8[C@H](O)[C@@H](O)[C@@H](O[C@H]9[C@H](O)[C@@H](O)C(OC1[C@H](O)[C@H]2O)O[C@@H]9CO)O[C@@H]8CO)O[C@@H]7CO)O[C@@H]6CO)O[C@@H]5CO)O[C@@H]4CO)[C@H](O)[C@H]3O	Not Active	Not Active	Not Active	Not Active	Not Active	Not Active	Not Active	Not Active	–	–	–	–	–	–	–	–	–	–
